≈ marks a conversion by molar mass, not a printed value.
What was measured:
[1] = Water solubility at room temperature (excess solid stirred in deionized water, HPLC); conditions: thermodynamic from solid; for solubility at 24 h: deionized water
Description: A stir bar was then placed in the tube and the tube placed on a multi-position stirrer plate. […] The solubility of each compound was determined via HPLC, wherein a portion of the supernatant was removed from the tube, diluted with ACN:water (50:50 by volume) as necessary to achieve a suitable concentration for analysis, and then analyzed by HPLC against a standard (=a solution of the K salt of Example 1 in ACN:water 50:50 by volume). One determination was made for each compound.
HPLC: column=Agilent Zorbax Eclipse (4.6×50 mm, 1.8 micron); mobile phase=0.1% H3PO4:ACN; gradient=90% to 10% H3PO4; flow rate=1.5 mL/minute; column temperature=45° C.; injection volume=25 μL; UV sampling with detection wavelength=210 nm; run time=15 minutes.

[2] = Oral bioavailability in pharmacokinetic studies in animals; type: in vivo; conditions: qualitative
[3] = Aqueous solubility (background statement); type: physicochemical; conditions: qualitative statement in Background
[4] = biological target: HIV reverse transcriptase (Human immunodeficiency virus type 1 group M subtype B, UniProt P03366); conditions: qualitative statement in Background; cited from earlier work

| SMILES | solubility at 4 h [1] [µg/mL] | oral bioavailability [2] | solubility at 24 h [1] [µg/mL] | aqueous solubility [3] | non-nucleoside reverse transcriptase inhibition [4] |
| --- | --- | --- | --- | --- | --- |
| N#Cc1cc(Cl)cc(Oc2c(C(F)(F)F)ccn(Cc3nn(COP(=O)([O-])O)c4ncccc34)c2=O)c1.O.[K+] [Example 1, Potassium (3-{[3-(3-chloro-5-cyanophenoxy)-2-oxo-4-(trifluoromethyl)pyridin-1(2H)-yl]methyl}-1H-pyrazolo[3,4-b]pyridin-1-yl)methyl hydrogen phosphate monohydrate] | 12000 |  |  |  |  |
| N#Cc1cc(Cl)cc(Oc2c(C(F)(F)F)ccn(Cc3n[nH]c4ncccc34)c2=O)c1 [Compound A, 3-chloro-5-{[2-oxo-1-(1H-pyrazolo[3,4-b]pyridin-3-ylmethyl)-4-(trifluoromethyl)-1,2-dihydropyridin-3-yl]oxy}benzonitrile] |  | relatively low | 0.2 (≈ 0.449 µM) | relatively low | potent |
| N#Cc1cc(Cl)cc(Oc2c(Cl)ccn(Cc3n[nH]c4ncccc34)c2=O)c1 [Compound B, 3-chloro-5-{[4-chloro-2-oxo-1-(1H-pyrazolo[3,4-b]pyridin-3-ylmethyl)-1,2-dihydropyridin-3-yl]oxy}benzonitrile] |  |  |  | relatively low | potent |
| CN(CCN)C(=O)n1nc(Cn2ccc(C(F)(F)F)c(Oc3cc(Cl)cc(C#N)c3)c2=O)c2cccnc21.O=S(=O)(O)c1ccccc1 [Example 9, N-(2-Aminoethyl)-3-{[3-(3-chloro-5-cyanophenoxy)-2-oxo-4-(trifluoromethyl)pyridin-1(2H)-yl]methyl}-N-methyl-1H-pyrazolo[3,4-b]pyridine-1-carboxamide benzenesulfonate] |  |  | 1100 |  |  |
